Assays:
human IgG [1] = assay type: binding; details: peptide on Toyopearl AF-amino-650M, 30 min, room temperature
Protocol: Measurement of IgG binding by peptide-based chromatographic adsorbents: For initial studies, 35 mg of MWRGWQ (SEQ ID NO:2)-Toyopearl, RHLGWF (SEQ ID NO:3)-Toyopearl, WQRHGI (SEQ ID NO:1)-Toyopearl, GWLHQR (SEQ ID NO:4)-Toyopearl, and HWRGWV (SEQ ID NO:18)-Toyopearl (control) resins were equilibrated in PBS pH 7.4, reaching a swollen volume of 0.1 mL, and subsequently incubated with 1 mg/mL IgG in 0.205 mg/mL CHO cell culture supernatant for 30 minutes. The resins were subsequently washed several times with PBS to remove non-specifically bound proteins. Elution was performed with 100 mM glycine buffer pH 2.5. Flowthrough and elution fractions were collected and analyzed by SDS PAGE under reducing conditions. The resulting gels were stained with Coomassie staining. Further, 25 mg of the adsorbents MWRGWQ (SEQ ID NO:2)-Toyopearl, NIFRGWQ (SEQ ID NO:21)-Toyopearl, MWRAWQ (SEQ ID NO:5)-Toyopearl, MWRGFQ (SEQ ID NO:7)-Toyopearl, MWRGWN (SEQ ID NO:22)-Toyopearl, (NorL) WRGWQ (SEQ ID NO:23)-Toyopearl, MGRGWQ (SEQ ID NO:24)-Toyopearl, MWRWQ (SEQ ID NO:6)-Toyopearl, MWRGGQ (SEQ ID NO:26)-Toyopearl, GWRGWQ (SEQ ID NO:8)-Toyopearl, WQRHGI (SEQ ID NO:1)-Toyopearl, WNRHGI (SEQ ID NO:12)-Toyopearl, WQRAGI (SEQ ID NO:28)-Toyopearl, WQRHAI (SEQ ID NO:11)-Toyopearl, WQRHGL (SEQ ID NO:9)-Toyopearl, FQRHGI (SEQ ID NO:29)-Toyopearl, and WQRHGV (SEQ ID NO:10)-Toyopearl resins were equilibrated in PBS pH 7.4, reaching a swollen volume of 0.1 mL, and subsequently incubated with 1 mg/mL IgG in PBS at pH 7.4 for 30 minutes. The amount of unbound IgG in the supernatant samples was quantified by Bradford assay and utilized to determine the IgG binding % by the peptide variants.
A limited library of residue-by-residue changes confirmed the importance of each residue in peptides WQRHGI (SEQ ID NO:1) and MWRGWQ (SEQ ID NO:2) in reducing the binding energy between the peptide and the IgG target. […] This was accomplished by designing and constructing an ensemble of 20 variants of peptides WQRHGI (SEQ ID NO:1) and MWRGWQ (SEQ ID NO:2). Selected residues in positions 1-6 were mutated. The peptide variants were synthesized directly on Toyopearl AF-amino-650M resin via Fmoc/tBu chemistry. The resulting adsorbents were incubated with a solution of human IgG at 2 mg/mL at a ratio of 1 mL of resin per 3.5 mL of solution for 30 min at room temperature. The residual concentration of IgG in solution was determined by Bradford concentration assay of the supernatants and utilized to calculate the amounts of bound IgG per volume of resin; Table 7 reports the % binding, defined as mg IgG bound by variant/mg IgG bound by original sequence (either WQRHGI (SEQ ID NO:1) or MWRGWQ (SEQ ID NO:2))×100%, of each sequence variant.

human IgG [2] = test: Dynamic binding capacity by breakthrough assay; details: 20 mg/mL IgG in PBS
Protocol: Measurements of dynamic binding capacity (DBC) were performed on a Waters 2695 unit. MWRGWQ (SEQ ID NO:2)—Workbeads and WQRHGIC (SEQ ID NO:30)—Workbeads resins were wet packed in a 0.1 mL microbore column and equilibrated in PBS pH 7.4. A solution of human IgG at 20 mg/mL in PBS was owed through the column at 0.05 mL/min and 0.02 mL/min, corresponding to residence times (RT) of 2 and 5 min, respectively. The bound IgG was eluted with glycine pH 2.5. The absorbance of the effluent was monitored by UV/Vis spectrophotometry at 280 nm throughout the breakthrough study. The DBC was calculated at 10% of the breakthrough curve.
Breakthrough curves (FIG. 5 panels A-D) were obtained by flowing a 20 mg/mL solution of IgG in PBS through the […] and MWRGWQC (SEQ ID NO:31)-WB adsorbents at two different flow rates (0.05 and 0.02 mL/min) corresponding to two different residence times (2 and 5 minutes).

[3] = test system: human polyclonal IgG in CHO-S cell culture fluid; test: Static purification of IgG from CHO cell culture supernatant on peptide-Toyopearl resins, SDS-PAGE densitometry; details: Gel B, lane E (pH 4)

% Binding (mg IgG bound by variant/mg IgG bound by original sequence × 100%) (human IgG [1]): 100.00%
DBC at 10% breakthrough (human IgG [2]; residence time 2 min): 33.6 mg IgG/mL resin
DBC at 10% breakthrough (human IgG [2]; residence time 5 min): 43.8 mg IgG/mL resin
Substance: WQRHGI
% Purity (IgG over total eluted proteins) [3]: 100%

From patent publication US20230399358A1, “IMMUNOGLOBULIN PURIFICATION PEPTIDES AND THEIR USE” (North Carolina State University, priority 2019, published 2023)
